From US5164411A, “Pyrethroid compositions” (priority 1991, dated 1992)
Converted amounts (≈) assume the structure as drawn.

Key:
rats [1] = assay: Multigeneration study; assay type: in vivo
Experimental: Multigeneration studies were conducted in compliance with EPA guideline 83-4 and provide information on reproductive parameters as well as neonatal morbidity and mortality for multiple generations. Wistar rats were fed diets, throughout the study, containing 0, 50, 150, and 750 ppm of cypermethrin (the top dose level was 1000 ppm for the first 12 weeks, but was lowered to 750 ppm for the remainder of the study owing to toxicity). Similarly, Sprague-Dawley rats were fed diets containing 0, 7.5, 25, 100, 375, and 750 ppm of sigma-cypermethrin. (Again, the rates are lower for sigma-cypermethrin, because it was expected to be more toxic.) The cypermethrin isomer content (weight %) of the sigma-cypermethrin technical product used in this study was total isomers--89.1%, S-isomers--82%, cis/trans ratio--51/49. […] Body weights and food consumption were recorded at regular intervals.
The breeding of parental and subsequent generations in each study was initiated with 30 females. In both studies appropriate dietary concentrations of test material were provided during cohabitation. Exposure of the parental males of each generation continued until a scheduled sacrifice following completion of the cohabitation periods, while exposure of parental females continued through to weaning of pups. Pups were weaned at postnatal day 28 in both studies.

[2] = Ninety-six-hour flow-through acute toxicity, sheepshead minnow; assay type: in vivo, Cyprinodon variagatus; details: 96 h flow-through, filtered seawater
Experimental: (§1) Ninety-six-hour flow-through acute toxicity studies of both cypermethrin and sigma-cypermethrin were conducted in the rainbow trout (Oncorhynchus mykiss) and in the sheepshead minnow (Cyprinodon variagatus) to determine the median-lethal-concentration (LC50) resulting from continuous exposure. For the rainbow trout the exposure medium was well water; for the sheepshead minnow, filtered seawater. Each group of 20 fish (10 per replicate aquarium) was exposed either to one of five concentrations of pyrethroid delivered in a diluter system in dimethylformamide (DMF), to 30 μL/L DMF in the exposure medium (solvent control), or to the exposure medium alone (control). Observations for mortality, morbidity, and other overt signs of toxicity were determined at prescribed intervals. Concentrations of the test materials were measured at the beginning and end of the exposure using a validated HPLC method. The cypermethrin isomer content (weight %) of the sigma-cypermethrin technical product used in this study was total isomers--88.2%, S-isomers--82%, cis/trans ratio--53/47.

rats [3] = assay: 90-day feeding study; assay type: in vivo; details: for no observable effect level (NOEL): in diet, at least ninety days
Experimental: In the 90-day feeding study, conducted in compliance with EPA guideline 82-1, the compound under test was administered continuously in the diet to groups of rats for at least ninety days at concentrations of 0, 150, and 1500 ppm to groups of fifteen Sprague-Dawley rats for cypermethrin and 0, 10, 50, 150, 250, 500, and 900 ppm to groups of ten Fisher 344 rats for sigma-cypermethrin. (The rates for sigma-cypermethrin were lower, because it was expected to be more toxic than cypermethrin.) The cypermethrin isomer content (weight %) of the sigma-cypermethrin technical product used in this study was total isomers--88.2%, S-isomers--82%, cis/trans ratio--53/47. Individual body weight and food consumption values were recorded weekly. At termination, hematology and clinical chemistry determinations were conducted and organ weights were obtained for adrenals, brain, heart, kidneys, liver, and ovaries or testes. Histopathological examination of approximately 40 tissues was conducted on all animals in the control group and in the highest dose group in the cypermethrin study and in the highest two groups (500 and 900 ppm) in the sigma-cypermethrin study. In addition, histopathological examination was performed on the lungs, liver, and kidneys of animals in the mid-dose groups of both studies ([…] and 10, 50, 150, and 250 ppm for sigma-cypermethrin). An ophthalmic examination was conducted on all animals prior to initiation of treatment and prior to final sacrifice.

[4] = test system: alfalfa weevil (Hypera postica); assay: Field trials, control of alfalfa weevil; assay type: in vivo
Experimental: Field trials were conducted in Louisiana, North Carolina, Texas, Kentucky, Tennessee, and Illinois to evaluate the control of alfalfa weevil (Hypera postica). Small plot trials were used in a randomized block design with four replications per treatment. Applications were made with CO2 backpack sprayers. Results were obtained at 3, 7, and 14 days after treatment (DAT) and were converted to percent control based on the untreated check.

[5] = test system: Mexican bean beetle (Epilachna varivestis); assay: Foliar evaluation, Mexican bean beetle (MBB); assay type: in vivo; details: for LC50: Epilachna varivestis, foliar, pinto beans, mortality at 48 hours
Experimental: (§2) Cypermethrin and sigma-cypermethrin were tested by foliar application at various concentrations in aqueous solutions containing 9.75% acetone and 0.25% octylphenoxypolyethoxyethanol. Insect species utilized included the cabbage looper (Trichoplusia ni), southern armyworm (Spodoptera eridania), Mexican bean beetle (Epilachna varivestis), tobacco budworm (Heliothis virescens), and corn earworm (Heliothis zea).
(§3) For all insects, pinto beans (Phaseolus vulgaris) plants were treated with the test solutions. The test solutions were applied with a sprayer to the upper and lower surfaces of the plant leaves to runoff. The plants were then allowed to dry and were severed at the base of the stem before being placed in cups. Ten second instar individuals of the appropriate insect species, except the tobacco budworm and corn earworm, were placed in each cup and the cup covered. Tests with the tobacco budworm and corn earworm used four replicates with each replicate containing five second instar insects. In all tests, mortality was read 48 hours later. The sigma-cypermethrin used in the foliar evaluations was the product of Example 2.

[6] = test system: tobacco budworm strain resistant to pyrethroids; assay: Foliar evaluation, pyrethroid-resistant tobacco budworm (TBW-R); assay type: in vivo, Heliothis virescens; details: for LC50: Heliothis virescens, foliar, pinto beans, mortality at 48 hours
Experimental: as §2, §3

[7] = Ninety-six-hour flow-through acute toxicity, rainbow trout; assay type: in vivo, Oncorhynchus mykiss; details: 96 h flow-through, well water
Experimental: as §1

[8] = test system: southern armyworm (Spodoptera eridania); assay: Foliar evaluation, southern armyworm (SAW); assay type: in vivo; details: for LC50: Spodoptera eridania, foliar, pinto beans, mortality at 48 hours
Experimental: as §2, §3

[9] = test system: cabbage looper (Trichoplusia ni); assay: Foliar evaluation, cabbage looper (CL); assay type: in vivo; details: for LC50: Trichoplusia ni, foliar, pinto beans, mortality at 48 hours
Experimental: as §2, §3

CC1(C)C(C=C(Cl)Cl)C1C(=O)O[C@H](C#N)c1cccc(Oc2ccccc2)c1 (mixture of isomers) [sigma-cypermethrin, (S)(cyano)(3-phenoxyphenyl)methyl cis/trans-3-(2,2-dichloroethenyl)-2,2-dimethylcyclopropanecarboxylate]
mortality of F1 generation litters (rats [1]; 750 ppm in diet, 28-day lactation and first week postweaning): excessive mortality | NOEL relative to that of cypermethrin (rats [1]; multigeneration): twice that of cypermethrin | amount required to show an effect on rats relative to that expected from effect on insects (rats [1]; multigeneration): four times | LC50 at 96 h [2]: 0.00237 µg/mL | amount required to show an effect on rats relative to that expected from effect on insects (rats [3]; 90-day feeding): more than three times | NOEL relative to the cypermethrin value (rats [3]; 90-day feeding, rats): more than one and a half times the cypermethrin value | no observable effect level (NOEL) (rats [3]): 250 ppm | % Alfalfa Weevil Control ([4]; Year 1, 0.022 lb ai/A, 3 DAT, average of 4 trials): 96% | % Alfalfa Weevil Control ([4]; Year 1, 0.022 lb ai/A, 7 DAT, average of 4 trials): 94% | % Alfalfa Weevil Control ([4]; Year 1, 0.022 lb ai/A, 14 DAT, average of 4 trials): 96% | % Alfalfa Weevil Control ([4]; Year 2, 0.01 lb ai/A, 3 DAT, average of 6 trials): 93% | % Alfalfa Weevil Control ([4]; Year 2, 0.01 lb ai/A, 7 DAT, average of 6 trials): 93% | % Alfalfa Weevil Control ([4]; Year 2, 0.01 lb ai/A, 14 DAT, average of 6 trials): 85% | % Alfalfa Weevil Control ([4]; Year 2, 0.015 lb ai/A, 3 DAT, average of 6 trials): 94% | % Alfalfa Weevil Control ([4]; Year 2, 0.015 lb ai/A, 7 DAT, average of 6 trials): 97% | % Alfalfa Weevil Control ([4]; Year 2, 0.015 lb ai/A, 14 DAT, average of 6 trials): 94% | % Alfalfa Weevil Control ([4]; Year 2, 0.022 lb ai/A, 3 DAT, average of 6 trials): 94% | % Alfalfa Weevil Control ([4]; Year 2, 0.022 lb ai/A, 7 DAT, average of 6 trials): 96% | % Alfalfa Weevil Control ([4]; Year 2, 0.022 lb ai/A, 14 DAT, average of 6 trials): 94% | LC50 [5]: 0.3 µg/mL | effectiveness relative to cypermethrin ([5]; the only Coleoptera tested, laboratory): four times as effective | Relative Potency ([5]; vs cypermethrin, MBB): 4.0 | LC50 [6]: 43 µg/mL | Relative Potency ([6]; vs cypermethrin, TBW-R): 2.1 | LC50 at 96 h [7]: 0.00069 µg/mL | LC50 [8]: 1.8 µg/mL | Relative Potency ([8]; vs cypermethrin, SAW): 2.3 | LC50 [9]: 1.4 µg/mL | Relative Potency ([9]; vs cypermethrin, CL): 1.6

CC1(C)C(C=C(Cl)Cl)C1C(=O)OC(C#N)c1cccc(Oc2ccccc2)c1 (centres unmarked) [cypermethrin, (cyano)(3-phenoxyphenyl)methyl 3-(2,2-dichloroethenyl)-2,2-dimethylcyclopropanecarboxylate, reference compound]
toxicity at top dose level (rats [1]; 1000 ppm in diet, first 12 weeks, lowered to 750 ppm): toxicity | NOEL (rats [1]; in diet, multiple generations): 50 ppm | LC50 at 96 h [2]: 0.00388 µg/mL (≈ 0.00932 µM) | no observable effect level (NOEL) (rats [3]): 150 ppm | % Alfalfa Weevil Control ([4]; Year 2, 0.04 lb ai/A, 3 DAT, average of 6 trials): 94% | % Alfalfa Weevil Control ([4]; Year 2, 0.04 lb ai/A, 7 DAT, average of 6 trials): 96% | % Alfalfa Weevil Control ([4]; Year 2, 0.04 lb ai/A, 14 DAT, average of 6 trials): 90% | LC50 [5]: 1.2 µg/mL (≈ 2.88 µM) | LC50 [6]: 92 µg/mL (≈ 221 µM) | LC50 at 96 h [7]: 0.000897 µg/mL (≈ 0.00215 µM) | LC50 [8]: 4.2 µg/mL (≈ 10.1 µM) | LC50 [9]: 2.3 µg/mL (≈ 5.52 µM)
